# Data as given in patent publication US20240308960A1 (Sumitomo Pharma Co., Ltd., priority 2021, published 2024).
# Biological target: T1, Human orexin receptor type 2 (Homo sapiens, UniProt O43614)
# T1 sequence (O43614 1-444): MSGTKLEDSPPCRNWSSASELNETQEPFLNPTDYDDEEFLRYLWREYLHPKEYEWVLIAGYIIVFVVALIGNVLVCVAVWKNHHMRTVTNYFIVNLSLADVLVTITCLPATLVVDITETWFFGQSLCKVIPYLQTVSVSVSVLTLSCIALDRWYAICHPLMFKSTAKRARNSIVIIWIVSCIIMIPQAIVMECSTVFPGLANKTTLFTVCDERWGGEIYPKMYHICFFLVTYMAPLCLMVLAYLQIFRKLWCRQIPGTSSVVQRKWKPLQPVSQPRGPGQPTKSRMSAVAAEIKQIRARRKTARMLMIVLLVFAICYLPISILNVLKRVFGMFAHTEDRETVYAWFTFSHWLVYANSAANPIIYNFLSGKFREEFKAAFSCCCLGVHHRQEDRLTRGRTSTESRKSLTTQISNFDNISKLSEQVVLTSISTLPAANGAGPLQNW
# Experiment: Test Example 1: agonist activity for orexin receptor type 2 (aequorin luminescence, intracellular calcium mobilization)
# Conditions: compound 10 μm; CHO cells transiently expressing human orexin receptor type 2 and apoaequorin; relative percentage of luminescence for the luminescence (100%) of Orexin A (100 μM)
row,Agonist Activity (%),SMILES
1,165%,"CC(C)N1CCN(c2cccc(Cl)c2NC(=O)N2CCC(C)(c3noc(CC4CC4)n3)CC2)CC1 [Example 105, N-{2-chloro-6-[4-(propan-2-yl)piperazin-1-yl]phenyl}-4-[5-(cyclopropylmethyl)-1,2,4-oxadiazol-3-yl]-4-methylpiperidine-1-carboxamide]"
2,185%,"CC(C)N1CCN(c2cccc(Cl)c2NC(=O)N2CCC(C)(c3noc(C4CC4(C)C)n3)CC2)CC1 (stereo not drawn) [Example 106, N-{2-chloro-6-[4-(propan-2-yl)piperazin-1-yl]phenyl}-4-[5-(2,2-dimethylcyclopropyl)-1,2,4-oxadiazol-3-yl]-4-methylpiperidine-1-carboxamide]"
3,163%,"CC(C)N1CCN(c2cccc(Cl)c2NC(=O)N2CCC(C)(c3noc(C4(C(F)(F)F)CC4)n3)CC2)CC1 [Example 107, N-{2-chloro-6-[4-(propan-2-yl)piperazin-1-yl]phenyl}-4-methyl-4-{5-[1-(trifluoromethyl)cyclopropyl]-1,2,4-oxadiazol-3-yl}piperidine-1-carboxamide]"
4,157%,"COC1(c2nc(C3(C)CCN(C(=O)Nc4c(Cl)cccc4N4CCN(C(C)C)CC4)CC3)no2)CC1 [Example 108, N-{2-chloro-6-[4-(propan-2-yl)piperazin-1-yl]phenyl}-4-[5-(1-methoxycyclopropyl)-1,2,4-oxadiazol-3-yl]-4-methylpiperidine-1-carboxamide]"
5,161%,"CC(C)N1CCN(c2cccc(Cl)c2NC(=O)N2CCC(C)(c3noc(C4(F)CC4)n3)CC2)CC1 [Example 109, N-{2-chloro-6-[4-(propan-2-yl)piperazin-1-yl]phenyl}-4-[5-(1-fluorocyclopropyl)-1,2,4-oxadiazol-3-yl]-4-methylpiperidine-1-carboxamide]"
6,157%,"CC1(c2noc(C3CC3)n2)CCN(C(=O)Nc2c(Cl)cccc2N2CCN(C3CC3)CC2)CC1 [Example 113, N-[2-chloro-6-(4-cyclopropylpiperazin-1-yl)phenyl]-4-(5-cyclopropyl-1,2,4-oxadiazol-3-yl)-4-methylpiperidine-1-carboxamide]"
7,155%,"CC(C)N1CCN(c2cccc(Cl)c2NC(=O)N2CCC(C)(c3noc(C4CC4(F)F)n3)CC2)CC1 (stereo not drawn) [Example 114, N-{2-chloro-6-[4-(propan-2-yl)piperazin-1-yl]phenyl}-4-[5-(2,2-difluorocyclopropyl)-1,2,4-oxadiazol-3-yl]-4-methylpiperidine-1-carboxamide]"
8,158%,"CC(C)N1CCN(c2cccc(Cl)c2NC(=O)N2CCC(C)(c3noc([C@H]4C[C@H]4C)n3)CC2)CC1 [Example 117, N-{2-chloro-6-[4-(propan-2-yl)piperazin-1-yl]phenyl}-4-methyl-4-{5-[(1S,2R)-2-methylcyclopropyl]-1,2,4-oxadiazol-3-yl}piperidine-1-carboxamide]"
9,149%,"CC(C)N1CCN(c2cccc(Cl)c2NC(=O)N2CCC(C)(c3noc([C@@H]4C[C@@H]4C)n3)CC2)CC1 [Example 118, N-{2-chloro-6-[4-(propan-2-yl)piperazin-1-yl]phenyl}-4-methyl-4-{5-[(1R,2S)-2-methylcyclopropyl]-1,2,4-oxadiazol-3-yl}piperidine-1-carboxamide]"
10,154%,"CC(C)N1CCN(c2cccc(Cl)c2NC(=O)N2CCC(C)(c3noc(CC(F)(F)F)n3)CC2)CC1 [Example 119, N-{2-chloro-6-[4-(propan-2-yl)piperazin-1-yl]phenyl}-4-methyl-4-[5-(2,2,2-trifluoroethyl)-1,2,4-oxadiazol-3-yl]piperidine-1-carboxamide]"
11,125%,"Cc1nc(C2(C)CCN(C(=O)Nc3ccccc3N3CCN(C(C)C)CC3)CC2)no1 [Example 120, 4-methyl-4-(5-methyl-1,2,4-oxadiazol-3-yl)-N-{2-[4-(propan-2-yl)piperazin-1-yl]phenyl}piperidine-1-carboxamide]"
12,130%,Cc1ccc(C2CCN(C(=O)Nc3ccccc3N3CCN(C(C)C)CC3)CC2)cc1 [Example 121]
13,122%,"CCN1CCN(c2ccccc2NC(=O)N2CCC(c3ccc(C)cc3)CC2)CC1 [Example 122, N-[2-(4-ethylpiperazin-1-yl)phenyl]-4-(4-methylphenyl)piperidine-1-carboxamide]"
14,105%,"Cc1ccc(C2CCN(C(=O)Nc3ccccc3N3CCN(C)CC3)CC2)cc1 [Example 123, 4-(4-methylphenyl)-N-[2-(4-methylpiperazin-1-yl)phenyl]piperidine-1-carboxamide]"
15,27%,"Cc1ccc(C2CCN(C(=O)Nc3ccccc3N3CCN(C4CCOC4)CC3)CC2)cc1 (stereo not drawn) [Example 124, 4-(4-methylphenyl)-N-{2-[4-(oxolan-3-yl)piperazin-1-yl]phenyl}piperidine-1-carboxamide]"
16,141%,"COCCN1CCN(c2ccccc2NC(=O)N2CCC(c3ccc(C)cc3)CC2)CC1 [Example 125, N-{2-[4-(2-methoxyethyl)piperazin-1-yl]phenyl}-4-(4-methylphenyl)piperidine-1-carboxamide]"
17,139%,"COCC(C)N1CCN(c2ccccc2NC(=O)N2CCC(c3ccc(C)cc3)CC2)CC1 (stereo not drawn) [Example 126, N-{2-[4-(1-methoxypropan-2-yl)piperazin-1-yl]phenyl}-4-(4-methylphenyl)piperidine-1-carboxamide]"
18,145%,"CCOc1cccc(C2CCN(C(C)C)CC2)c1NC(=O)N1CCC(c2ccc(C)cc2)CC1 [Example 127, N-{2-ethoxy-6-[1-(propan-2-yl)piperidin-4-yl]phenyl}-4-(4-methylphenyl)piperidine-1-carboxamide]"
19,136%,"CCOc1cccc(C2CCN(C(C)CC)CC2)c1NC(=O)N1CCC(c2ccc(C)cc2)CC1 (stereo not drawn) [Example 128, N-{2-[1-(butan-2-yl)piperidin-4-yl]-6-ethoxyphenyl}-4-(4-methylphenyl)piperidine-1-carboxamide]"
20,138%,"Cc1ccc(C2CCN(C(=O)Nc3c(OC(C)C)cccc3C3CCN(C(C)C)CC3)CC2)cc1 [Example 129, 4-(4-methylphenyl)-N-{2-[(propan-2-yl)oxy]-6-[1-(propan-2-yl)piperidin-4-yl]phenyl}piperidine-1-carboxamide]"
21,150%,"CC1(c2noc(C3CC3)n2)CCN(C(=O)Nc2c(Cl)cccc2C2=CCN(C3CCC3)CC2)CC1 [Example 131, N-[2-chloro-6-(1-cyclobutyl-1,2,3,6-tetrahydropyridin-4-yl)phenyl]-4-(5-cyclopropyl-1,2,4-oxadiazol-3-yl)-4-methylpiperidine-1-carboxamide]"
22,156%,"Cc1ccc(C2CCN(C(=O)Nc3c(Cl)cccc3C3CCN(C(C)C)CC3)CC2)cc1 [Example 133, N-{2-chloro-6-[1-(propan-2-yl)piperidin-4-yl]phenyl}-4-(4-methylphenyl)piperidine-1-carboxamide]"
23,126%,"Cc1ccc(C2CCN(C(=O)Nc3c(F)cccc3C3CCN(C(C)CF)CC3)CC2)cc1 (stereo not drawn) [Example 137, N-{2-fluoro-6-[1-(1-fluoropropan-2-yl)piperidin-4-yl]phenyl}-4-(4-methylphenyl)piperidine-1-carboxamide]"
24,44%,"Cc1ccc(C2CCN(C(=O)Nc3c(F)cccc3C3CCN(C(C)C(F)F)CC3)CC2)cc1 (stereo not drawn) [Example 138, N-{2-[1-(1,1-difluoropropan-2-yl)piperidin-4-yl]-6-fluorophenyl}-4-(4-methylphenyl)piperidine-1-carboxamide]"
25,121%,"Cc1ccc(C2CCN(C(=O)Nc3c(F)cccc3C3=CCN(C(C)C)C3)CC2)cc1 [Example 139, N-{2-fluoro-6-[1-(propan-2-yl)-2,5-dihydro-1H-pyrrol-3-yl]phenyl}-4-(4-methylphenyl)piperidine-1-carboxamide]"

row,SMILES,Agonist Activity (%)
1,"CC(C)N1CC=C(c2cccc(Cl)c2NC(=O)N2CCC(C)(c3noc(C4CC4)n3)CC2)CC1 [Example 130, N-{2-chloro-6-[1-(propan-2-yl)-1,2,3,6-tetrahydropyridin-4-yl]phenyl}-4-(5-cyclopropyl-1,2,4-oxadiazol-3-yl)-4-methylpiperidine-1-carboxamide]",142%
2,"Cc1ccc(C2CCN(C(=O)Nc3c(Cl)cccc3C3=CCN(C(C)C)CC3)CC2)cc1 [Example 132, N-{2-chloro-6-[1-(propan-2-yl)-1,2,3,6-tetrahydropyridin-4-yl]phenyl}-4-(4-methylphenyl)piperidine-1-carboxamide]",171%
3,"Cc1ccc(C2CCN(C(=O)Nc3c(F)cccc3C3=CCN(C(C)CF)CC3)CC2)cc1 (stereo not drawn) [Example 134, N-{2-fluoro-6-[1-(1-fluoropropan-2-yl)-1,2,3,6-tetrahydropyridin-4-yl]phenyl}-4-(4-methylphenyl)piperidine-1-carboxamide]",135%
4,"Cc1ccc(C2CCN(C(=O)Nc3c(F)cccc3C3=CCN(C(C)C(F)F)CC3)CC2)cc1 (stereo not drawn) [Example 135, N-{2-[1-(1,1-difluoropropan-2-yl)-1,2,3,6-tetrahydropyridin-4-yl]-6-fluorophenyl}-4-(4-methylphenyl)piperidine-1-carboxamide]",103%
5,"Cc1ccc(C2CCN(C(=O)Nc3c(F)cccc3C3=CCN(C(CF)CF)CC3)CC2)cc1 [Example 136, N-{2-[1-(1,3-difluoropropan-2-yl)-1,2,3,6-tetrahydropyridin-4-yl]-6-fluorophenyl}-4-(4-methylphenyl)piperidine-1-carboxamide]",105%
